# Laboratory results as given in PMC10113987, “A tool for nuclear imaging of the SARS-CoV-2 entry receptor: molecular model and preclinical development of ACE2-selective radiopeptides” (EJNMMI Research, 2023).
# Where two headings read alike, the source gives them in different places. Positions of bridges follow the written chain, without caps; N, C: chain ends. Residues, ends and D or L forms follow the SMILES beside them. *: point of attachment. HBEDCC = O=C(O)CCc1ccc(O)c(CN(CCN(CC(=O)O)Cc2cc(CCC(=O)*)ccc2O)CC(=O)O)c1
# What was measured:
# [1] = parameters: method as in doi:10.1016/0020-1693(94)04012-5; conditions: cited from earlier work
# [2] = tested on: HEK-ACE2/HEK-ACE-xenografted mice; test: SPECT/CT imaging and quantification of retained activity in HEK-ACE2/HEK-ACE xenografted mice; format: in vivo, mouse; conditions: SPECT/CT quantification, non-decay-corrected
# Procedure: (§1) All applicable international, national, and/or institutional guidelines for the care and use of animals were followed. In particular, all animal experiments were carried out according to the guidelines of the Swiss Regulations for Animal Welfare. Preclinical studies have been ethically approved by the Cantonal Committee of Animal Experimentation and permitted by the responsible cantonal authorities (License N° 75743). Five-week-old female CD1/nude mice and female immunocompetent FVB mice were obtained from Charles River Laboratories (Sulzfeld, Germany) and fed with standard rodent chow ad libitum. CD1/nude were subcutaneously inoculated with HEK-ACE2 cells (6–8 × 10^6 cells in 100 µL PBS) on the right shoulder and approximately one week later with HEK-ACE (4 × 10^6 cells in 100 µL PBS) on the left shoulder. Imaging and biodistribution studies were performed 2–4 weeks later when the xenografts reached a size of 100–300 mm^3.
# SPECT/CT imaging was performed using a four-head, multiplexing, multipinhole small-animal SPECT camera (NanoSPECT/CT™, Mediso Medical Imaging Systems, Budapest, Hungary). Each head was outfitted with a tungsten-based aperture of nine 1.4 mm-diameter pinholes and a thickness of 10 mm. CT scans of 7.5 min duration were followed by SPECT scans of ~ 50 min performed 1 h, 3 h and 24 h after injection of the respective radiopeptide (10 MBq, 0.5 nmol, 100 μL), diluted in NaCl 0.9% containing 0.05% BSA. During the scan, mice were anesthetized with a mixture of isoflurane and oxygen. The images were acquired using Nucline software (version 1.02, Mediso Ltd., Budapest, Hungary). The real-time CT reconstruction used a cone-beam-filtered backprojection. The reconstruction of SPECT data was performed with the HiSPECT software (version 1.4.3049, Scivis GmbH, Göttingen, Germany) using γ-energies of 93.20 keV (± 10%), 184.60 keV (± 10%) and 300.00 keV (± 10%) for gallium-67. All images were prepared using the VivoQuant post-processing software (version 3.0, inviCRO Imaging Services and Software, Boston, US). A Gauss post-reconstruction filter (full width at half maximum, 1 mm) was applied, and the scale of activity for gallium-67 was set as indicated on the SPECT/CT images. In order to estimate the wash-out of the DX600-based radiopeptides from the HEK-ACE2 xenografts and kidneys over time, the absolute amount of activity was determined in these tissues using the VivoQuant quantification tool. The accumulated activity (non-decay-corrected value in MBq) in the xenografts and kidneys, respectively, obtained at the 1 h p.i. timepoint was set as 100%. The percentage of activity retained in these tissues was determined at 3 h and 24 h p.i. based on the absolute activity determined at these timepoints.
# [3] = In vitro stability in human blood plasma (TLC); format: in vitro ADME; conditions: 37 °C, whole incubation period of 24 h
# Procedure: (§2) The ^67Ga-labeled DX600-radiopeptides (20 MBq/nmol) were incubated in human and mouse plasma (10 MBq/200 µL), respectively, at 37 °C. Aliquots were taken at variable time points up to 24 h for analysis using reversed phase thin layer chromatography (TLC) with citrate buffer (0.1 M, pH 5.5) as a mobile phase. Images of the TLC plates were obtained using a storage phosphor system (Cyclone Plus, PerkinElmer) and quantified using the OptiQuant software (version 5.0, Bright Instrument Co Ltd., PerkinElmer™) (Supplementary Information).
# (§3) The radiopeptides were prepared and TLC experiments were performed immediately after radiolabeling by applying the diluted radiopeptides in saline (1 µL; ~0.05 MBq) and [^67Ga]GaCl3 solution (1 µL; ~0.05 MBq) on the TLC plates. The radiopeptides were incubated in mouse or human plasma (10 MBq/200 µL) at 37° C. TLC was performed with an aliquot of the plasma samples at the given timepoints (30 min, 1 h, 3 h and 24 h). The TLC plates were exposed to a phosphor screen followed by development using a storage phosphor system (Cyclone Plus, PerkinElmer). The quantification of the signals was carried out using the OptiQuant software (version 5.0, Bright Instrument Co Ltd., PerkinElmer^TM). The obtained chromatograms were analyzed by determination of the peak area of the radiolabeled peptide, the released gallium-67 as well as degradation products of unknown structure. The quantity of the intact product was expressed as percentage of the sum of integrated peak areas of the entire chromatogram.
# [4] = tested on: HEK-ACE2/HEK-ACE-xenografted mice; test: Biodistribution in HEK-ACE2/HEK-ACE xenografted mice; format: in vivo, mouse
# Procedure: as §1
# Biodistribution studies in xenograft-bearing mice were performed 2–4 weeks after cell inoculation. Mice were intravenously injected with [^67Ga]Ga-DOTA-DX600, [^67Ga]Ga-NODAGA-DX600, [^67Ga]Ga-HBED-CC-DX600 or [^67Ga]Ga-DOTA-BPP9a (3 MBq, 0.5 nmol, 100 µL) diluted in NaCl 0.9% containing 0.05% BSA. The mice were sacrificed 3 h after administration of the radiopeptides. Selected tissues and organs were collected, weighed and counted using a γ-counter. The results were listed as a percentage of the injected activity per gram of tissue mass (% IA/g), using counts of a defined volume of the original injection solution measured simultaneously, resulting in decay-corrected values. Statistical analysis was performed by applying a one‐way ANOVA test with a Tukey’s multiple comparisons post‐test (GraphPad Prism software, version 8.3.1).
# FVB mice = test: In vivo stability in immunocompetent FVB mice (TLC of blood plasma, urine, kidneys); parameters: species or system mouse; conditions: 1 h p.i., fraction of accumulated activity
# Procedure: In order to investigate the stability of the radiopeptides, the ^67Ga-labeled DX600 peptides (20 MBq/nmol) were tested in immunocompetent FVB mice (10 MBq in 100 μL per mouse). Before sacrificing, blood was collected from each mouse 1 h after injection of the radiopeptides. After centrifugation, the blood plasma was analyzed using reversed phase TLC with citrate buffer (0.1 M, pH 5.5) as a mobile phase. The kidneys were collected and processed to investigate the presence of intact radiopeptides and potential metabolites using the same TLC system. The analysis of the chromatograms was performed as described for the in vitro plasma stability (Additional file 1).
# Methods: Immunocompetent FVB mice were injected with the DX600-based radiopeptides (n=2). One hour later, urine was collected and blood was sampled from the retrobulbar vein followed by centrifugation (10 min, 200 rcf). A drop of urine and blood plasma was analyzed using the TLC method described for in vitro stability experiments above (reversed phase as stationary phase and citrate buffer pH 5.5 as mobile phase). The data were also confirmed using normal phase TLC. Kidneys of mice were collected, cut into small pieces, homogenized in 200 μL buffer solution (ice-cold methanol containing 0.025% NH4OH) and centrifuged (5 min, 2300 rcf, 4° C) as described by Boss et al.. An aliquot of the supernatant of each sample was developed using the same TLC method as for urine and blood plasma samples. The TLC plates were exposed to a phosphor screen which was afterwards read using a storage phosphor system (Cyclone Plus, PerkinElmer). The quantification of the signals was carried out using the OptiQuant software (version 5.0, Bright Instrument Co Ltd., PerkinElmer^TM). The obtained chromatograms were analyzed by determination of the peak area of the radiolabeled peptide, the released gallium-67 as well as degradation products of unknown structure. The quantity of the intact product was expressed as percentage of the sum of integrated peak areas of the entire chromatogram.
# [5] = In vitro stability in mouse blood plasma (TLC); format: in vitro ADME; conditions: 37 °C
# Procedure: as §2, §3
# [6] = 3 h after i.v. injection, decay-corrected, n = 3
structure (smiles),measurement,setting,value
"O=C(O)CCc1ccc(O)c(CN(CCN(CC(=O)O)Cc2cc(CCC(=O)O)ccc2O)CC(=O)O)c1 [HBED-CC, 3-(3-((2-((5-(2-carboxyethyl)-2-hydroxyphenyl)methyl-(carboxymethyl)amino)ethyl-(carboxymethyl)amino)methyl)-4-hydroxyphenyl)propanoic acid]",logK of coordination,[1]; Ga^3+,38
same,logK of coordination,[1]; Zn^2+,18
"CC(=O)N[C@@H](CCCCNC(=O)CCc1ccc(O)c(CN(CCN(CC(=O)O)Cc2cc(CCC(=O)O)ccc2O)CC(=O)O)c1)C(=O)NCC(=O)N[C@@H](CC(=O)O)C(=O)N[C@@H](Cc1ccc(O)cc1)C(=O)N[C@@H](CO)C(=O)N[C@@H](Cc1c[nH]cn1)C(=O)N[C@H]1CSSC[C@@H](C(=O)N[C@H](C(=O)N[C@@H](Cc2ccc(O)cc2)C(=O)N2CCC[C@H]2C(=O)N[C@@H](CC(=O)O)C(=O)N2CCC[C@H]2C(=O)N[C@@H](CCC(=O)O)C(=O)NCC(=O)NCC(=O)NCC(N)=O)[C@@H](C)O)NC(=O)[C@H](CCCCN)NC(=O)[C@H](Cc2c[nH]c3ccccc23)NC(=O)[C@H](Cc2c[nH]c3ccccc23)NC(=O)[C@@H]2CCCN2C(=O)[C@H](Cc2ccc(O)cc2)NC(=O)[C@H](Cc2ccc(O)cc2)NC(=O)[C@H](CCCNC(=N)N)NC(=O)[C@H](CC(C)C)NC(=O)[C@@H]2CCCN2C(=O)[C@H](CO)NC1=O [[^67Ga]Ga-HBED-CC-DX600, metal not drawn] (Ac-K(HBEDCC)GDYSHCSPLRYYPWWKCTYPDPEGGG-NH2; disulfide 7-18)",Activity retained in the kidneys relative to the 1 h p.i.-timepoint,[2]; 3 h p.i.,30%
same,Activity retained in the kidneys relative to the 1 h p.i.-timepoint,[2]; 24 h p.i.,< 1%
same,Intact radiopeptide in human blood plasma,[3],> 99%
same,Biodistribution: ACE2 xenograft (HEK-ACE2),[4]; [6],12.3 ± 1.3 % IA/g
same,Biodistribution: ACE xenograft (HEK-ACE),[4]; [6],< 0.5 % IA/g
same,Biodistribution: blood,[4]; [6],0.09 ± 0.04 % IA/g
same,Biodistribution: bone,[4]; [6],0.05 ± 0.02 % IA/g
same,Biodistribution: heart,[4]; [6],0.07 ± 0.03 % IA/g
same,Biodistribution: intestines,[4]; [6],0.43 ± 0.31 % IA/g
same,Biodistribution: kidneys (renal retention),[4]; [6],7.2 ± 2.2 % IA/g
same,Biodistribution: liver,[4]; [6],0.23 ± 0.16 % IA/g
same,Biodistribution: lung,[4]; [6],0.13 ± 0.05 % IA/g
same,Biodistribution: muscle,[4]; [6],0.03 ± 0.02 % IA/g
same,Biodistribution: salivary glands,[4]; [6],0.05 ± 0.02 % IA/g
same,Biodistribution: spleen,[4]; [6],0.06 ± 0.03 % IA/g
same,Biodistribution: stomach,[4]; [6],0.09 ± 0.03 % IA/g
same,Biodistribution: ACE xenograft (HEK-ACE),"[4]; 3 h after i.v. injection, decay-corrected, n = 3, listed as [^67Ga]Ga-HBED-CC- DX600",0.27 ± 0.33 % IA/g
same,HEK-ACE2 xenograft-to-kidney ratio,[4]; 3 h after injection,1.77 ± 0.34
same,Intact radiopeptide in kidney homogenates,FVB mice,> 92%
same,Radiometabolites in kidney homogenates,FVB mice,~ 7.5%
same,Intact radiopeptide in mouse blood plasma,[5]; 3 h,87 ± 2%
same,Intact radiopeptide in mouse blood plasma,[5]; 24 h,29 ± 1%
